The record followed here is PMC6199744, “Development of Chemical Proteomics for the Folateome and Analysis of the Kinetoplastid Folateome” (ACS Infectious Diseases, 2018).

What all share (assay type): binding
Experiment [1] concerns the target T1, HeLa cell extract proteins (Homo sapiens, UniProt P14373).
T1 construct: endogenous in cells; host or cells: HeLa cell extract
T1 sequence (P14373 1-513): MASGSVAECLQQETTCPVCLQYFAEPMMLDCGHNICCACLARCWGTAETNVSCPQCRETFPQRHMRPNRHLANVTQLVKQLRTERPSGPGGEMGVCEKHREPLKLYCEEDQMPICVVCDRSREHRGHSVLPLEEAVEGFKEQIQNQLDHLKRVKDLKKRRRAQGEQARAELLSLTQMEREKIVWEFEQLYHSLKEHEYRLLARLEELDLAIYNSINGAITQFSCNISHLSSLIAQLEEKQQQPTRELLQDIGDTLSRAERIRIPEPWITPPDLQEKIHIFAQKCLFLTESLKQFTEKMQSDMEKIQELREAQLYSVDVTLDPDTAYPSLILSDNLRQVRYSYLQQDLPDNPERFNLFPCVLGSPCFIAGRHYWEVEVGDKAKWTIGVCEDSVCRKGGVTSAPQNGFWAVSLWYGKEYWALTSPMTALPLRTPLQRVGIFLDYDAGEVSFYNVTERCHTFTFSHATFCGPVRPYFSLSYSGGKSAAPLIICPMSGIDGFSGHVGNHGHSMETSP

For experiment [2], the target named is T2, HeLa cell extract proteins (Homo sapiens, UniProt P30049).
T2 construct: endogenous in cells; host or cells: HeLa cell extract
T2 sequence (P30049 23-168): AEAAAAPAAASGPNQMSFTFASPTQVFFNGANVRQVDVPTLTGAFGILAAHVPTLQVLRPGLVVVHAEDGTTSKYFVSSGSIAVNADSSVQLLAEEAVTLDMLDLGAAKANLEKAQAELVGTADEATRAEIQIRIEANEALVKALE

In experiment [3] the target is T3, HeLa cell extract proteins (Homo sapiens, UniProt Q14157).
T3 construct: endogenous in cells; host or cells: HeLa cell extract
T3 sequence (Q14157 1-1087): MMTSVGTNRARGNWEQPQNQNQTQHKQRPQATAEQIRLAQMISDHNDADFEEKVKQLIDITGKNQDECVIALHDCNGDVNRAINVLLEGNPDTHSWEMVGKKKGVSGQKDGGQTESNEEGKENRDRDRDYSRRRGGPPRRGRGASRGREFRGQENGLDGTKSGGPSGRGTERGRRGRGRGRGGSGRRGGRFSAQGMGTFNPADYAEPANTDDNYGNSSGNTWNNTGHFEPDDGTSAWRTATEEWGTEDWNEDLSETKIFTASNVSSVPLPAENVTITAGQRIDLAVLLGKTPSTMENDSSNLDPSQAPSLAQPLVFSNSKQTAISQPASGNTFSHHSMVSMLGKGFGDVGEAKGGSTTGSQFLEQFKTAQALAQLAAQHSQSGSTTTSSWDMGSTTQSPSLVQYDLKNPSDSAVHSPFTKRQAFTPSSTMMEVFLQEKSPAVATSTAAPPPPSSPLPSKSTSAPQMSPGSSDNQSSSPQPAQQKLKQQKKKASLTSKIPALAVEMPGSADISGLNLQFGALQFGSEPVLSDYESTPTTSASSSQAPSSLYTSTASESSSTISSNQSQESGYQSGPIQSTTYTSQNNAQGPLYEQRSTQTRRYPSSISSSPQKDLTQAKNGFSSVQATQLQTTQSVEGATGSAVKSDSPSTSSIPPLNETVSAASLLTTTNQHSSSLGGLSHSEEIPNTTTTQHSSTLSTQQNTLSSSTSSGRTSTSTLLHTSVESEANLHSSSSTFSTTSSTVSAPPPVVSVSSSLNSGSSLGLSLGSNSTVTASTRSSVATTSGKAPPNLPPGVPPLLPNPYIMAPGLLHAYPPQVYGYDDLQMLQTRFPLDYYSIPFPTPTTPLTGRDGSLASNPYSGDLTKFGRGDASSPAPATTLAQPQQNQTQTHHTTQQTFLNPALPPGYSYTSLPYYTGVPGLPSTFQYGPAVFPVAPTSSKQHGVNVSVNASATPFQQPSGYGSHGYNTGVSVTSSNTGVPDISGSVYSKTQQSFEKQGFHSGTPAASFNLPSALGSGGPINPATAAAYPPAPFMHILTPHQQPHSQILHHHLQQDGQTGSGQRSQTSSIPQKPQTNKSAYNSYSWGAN

Experiment [4] concerns the target T4, HeLa cell extract proteins (Homo sapiens, UniProt O75396).
T4 construct: endogenous in cells; host or cells: HeLa cell extract
T4 sequence (O75396 1-215): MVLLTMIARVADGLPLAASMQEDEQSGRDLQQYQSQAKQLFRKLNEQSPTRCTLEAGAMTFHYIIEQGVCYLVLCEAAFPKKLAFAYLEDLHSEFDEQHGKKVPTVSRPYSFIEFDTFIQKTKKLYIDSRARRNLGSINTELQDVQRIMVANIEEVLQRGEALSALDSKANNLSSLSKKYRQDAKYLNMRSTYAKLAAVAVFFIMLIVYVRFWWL
The settings on record: protein SEC22B; HeLa.

Experiment [5] addresses T5, HeLa cell extract proteins (Homo sapiens, UniProt P49257).
T5 construct: endogenous in cells; host or cells: HeLa cell extract
T5 sequence (P49257 31-510): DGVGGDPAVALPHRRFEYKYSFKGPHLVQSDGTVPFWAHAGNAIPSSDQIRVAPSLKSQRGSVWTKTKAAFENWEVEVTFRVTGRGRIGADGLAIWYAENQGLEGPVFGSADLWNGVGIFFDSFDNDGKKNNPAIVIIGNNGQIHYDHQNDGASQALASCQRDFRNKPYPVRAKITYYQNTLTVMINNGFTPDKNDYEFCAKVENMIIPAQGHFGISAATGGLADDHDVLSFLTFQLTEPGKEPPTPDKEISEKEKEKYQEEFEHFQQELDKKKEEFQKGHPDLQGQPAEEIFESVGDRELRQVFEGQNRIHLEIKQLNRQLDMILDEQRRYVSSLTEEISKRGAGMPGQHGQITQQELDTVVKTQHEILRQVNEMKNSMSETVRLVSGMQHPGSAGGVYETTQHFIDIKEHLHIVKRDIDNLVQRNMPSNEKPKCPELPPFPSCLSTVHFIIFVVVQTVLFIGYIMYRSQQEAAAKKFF
The settings on record: protein LMAN1; HeLa.

In experiment [6] the target is T6, HeLa cell extract proteins (Homo sapiens, UniProt Q9BVA1).
T6 construct: endogenous in cells; host or cells: HeLa cell extract
The settings on record: HeLa; protein TUBB2B.

Read-outs that look alike come from different tables or passages of the source.

T6 sequence (Q9BVA1 whole entry): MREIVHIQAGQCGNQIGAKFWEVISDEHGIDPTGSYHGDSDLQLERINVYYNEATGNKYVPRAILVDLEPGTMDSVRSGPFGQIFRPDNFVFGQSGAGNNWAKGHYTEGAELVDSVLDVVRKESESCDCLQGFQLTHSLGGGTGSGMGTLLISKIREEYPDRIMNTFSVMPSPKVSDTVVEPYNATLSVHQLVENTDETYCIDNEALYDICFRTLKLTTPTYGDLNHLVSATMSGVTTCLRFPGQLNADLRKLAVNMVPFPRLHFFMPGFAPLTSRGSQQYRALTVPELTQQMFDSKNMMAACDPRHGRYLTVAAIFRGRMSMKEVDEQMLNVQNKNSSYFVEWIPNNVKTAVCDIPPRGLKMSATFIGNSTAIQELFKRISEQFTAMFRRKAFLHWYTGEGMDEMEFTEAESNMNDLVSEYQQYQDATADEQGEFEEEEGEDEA

Consider `Nc1nc2c(c(=O)[nH]1)N(C=O)C(CNc1ccc(C(=O)N[C@@H](CCC(=O)O)C(=O)O)cc1)CN2` (stereo partly drawn) [LEU, leucovorin], for which the “fold changes relative to vehicle control” value in experiment [1] (HeLa, captured protein TRIM27) is listed as 0.97; in experiment [2] (protein ATP5D, HeLa) it was 0.85; in experiment [3] (HeLa, protein UBAP2L), 0.9.
As for `Nc1nc2[nH]cc(CCc3ccc(C(=O)N[C@@H](CCC(=O)O)C(=O)O)cc3)c2c(=O)[nH]1` [PTX, pemetrexed], the “fold changes relative to vehicle control” value in experiment [1] was 0.87; in experiment [2] it was 1.14; in experiment [3], 0.98.
Consider `CCCCCCOc1ccc(Cc2cnc(N)nc2N)cc1` [compound 1], for which the “fold changes relative to vehicle control” value came to 0.96 in experiment [4], 1.17 in experiment [5] and 1.07 in experiment [6].
Turning to `CCCCCCOc1cccc(Cc2cnc(N)nc2N)c1` [compound 2], the “fold changes relative to vehicle control” value in experiment [4] is given as 1.41; in experiment [5], 1.57; in experiment [6], 1.03.
`Nc1nc2cccc(-c3ccccc3)c2n1Cc1ccc(Cl)c(Cl)c1` [compound 3]: the “fold changes relative to vehicle control” value turned out to be 0.89 in experiment [4], 0.87 in experiment [5] and 1.11 in experiment [6].
As for `NCCOCCOCC(=O)Nc1nc2ncc(CNc3ccc(C(=O)NC(CCC(=O)O)C(=O)O)cc3)nc2c(=O)[nH]1` (stereo not drawn) [compound 6], the “fold changes relative to vehicle control” value in experiment [1] (HeLa, captured protein TRIM27) was determined as 0.89; in experiment [2] (protein ATP5D, HeLa), 1.17; in experiment [3] (HeLa, protein UBAP2L) it was 1.1.
Consider `NCCCNc1ccc(C(=O)NC(CCC(=O)O)C(=O)O)cc1` (stereo not drawn) [compound 7], for which the “fold changes relative to vehicle control” value was determined as 1.01 in experiment [1] (HeLa, captured protein TRIM27); 1.2 in experiment [2] (protein ATP5D, HeLa); 1.08 in experiment [3] (HeLa, protein UBAP2L).
